Columns and labels:
TNF-α = test: Whole bovine blood assay, LPS-induced TNF-α; assay type: cell-based; conditions: fresh whole bovine blood, LPS stimulant, top drug concentration 250 μM
Method: Whole Blood Assay-Fresh whole bovine blood samples were collected into heparinized vacutainer tubes. Assay plates were prepared with 25 μL of drug diluted in PBS at varying concentration in 96 round bottom wells, then 225 μL of blood was added and plates incubated at 37° C. for 4 hours. Cells were stimulated with LPS (or PBS for controls) by adding 25 μL to the plates at a final concentration of 1 μg/mL and incubated at 37° C. for 18 hours. To collect plasma, plates were centrifuged at 2,000×g for 10 minutes and 100 μL of supernatant was transferred to a 96 well polypropylene plate that was sealed and stored at −80° C. Samples were assayed for cytokines using the Meso Scale Discovery (MSD) platform (described below). This same MSD platform was used to assess cytokines in the plasma collected directly from drug treated animals.
Cytokine Detection—An MSD U-Plex cytokine assay was developed following the MSD U-Plex protocol guide and included biotinylated capture antibodies against: bovine Interleukin (IL)-1β (Biorad), bovine IL-6 (R&D Systems) and bovine tumor necrosis factor (TNF)-α (R&D Systems). […] Assay calibrators (Kingfisher) were diluted to a concentration of […] in control lithium heparin plasma, followed by 4-fold serial dilutions into plasma. […] Antibodies were used at the following concentrations: anti-IL-1β at 1 μg/mL, anti-IL-6 at 1 μg/mL and anti-TNF-α at 0.5 μg/mL. Cytokines were quantified according to manufacturer's instructions using a chemiluminescent readout. In brief, 0.5 mL of all biotinylated antibodies were diluted to 10 μg/mL with Diluent 100 and paired to their respective linkers by adding 750 μL of supplied Linker solution and incubated for 30 minutes followed by addition of Stop solution for another 30 minutes. The linked antibodies were then diluted 10-fold into Stop solution. Plates were coated by adding 50 μL of antibody solutions per well and incubated covered and shaking for 1 hour at room temperature. Plates were washed three times with PBS/Tween20 prior to samples or standards being added at 30 μL per well and incubated as above. Plates were washed three times before detection antibodies were added along with 2% goat and rabbit serum to block and incubated same as above. Plates were washed a further three times before addition of 150 μL 2X Read buffer and read immediately on the SI6000 instrument (MSD). For soluble protein levels, a BCA protein kit (Thermofisher) was used. The cytokine concentrations (pg/mL) were normalized to the total protein levels for each sample. [Bassel et. al., BMC Veterinary Research (2020) 16:168]
Therefore, a fresh whole bovine blood assay was developed with LPS as a stimulant (TLR-4 agonist) and with IL-1β and TNF-α as the read-out. Compounds of the invention were evaluated against a positive control for their ability to inhibit LPS-induced IL-1β and TNF-α as an overall evaluation of relative potency and modulation of target pathways.
TNFα is a cell signaling protein, cytokine, that plays a key role in both acute and chronic inflammation. In the bovine whole blood in vitro screening assay the inhibition of TNFα as induced by stimulation by lipopolysaccharide (LPS) and as measured by half the maximal inhibitory concentration (IC50) is recognized as the primary biomarker of immunomodulation potency upon pretreatment with the compounds of the invention. IL-1 B is a mediator of the inflammation response and is involved in a number of cellular activities including proliferation, differentiation and apoptosis. IL-1ß is also released upon cellular stress or cytotoxicity or upon TLR stimulation. […] In order to estimate a therapeutic index from the in vitro assay a differential between the TNFα IC50 (immunomodulation potency) versus the perceived cellular toxicity concentration (IL-1β release or overstimulation) was utilized.

IL-6 = test: Whole bovine blood assay, LPS-induced IL-6; assay type: cell-based; conditions: fresh whole bovine blood, LPS stimulant, top drug concentration 250 μM

SMILES | IC50 (TNF-α) [µM] | IC50 (IL-6) [µM] | IC50 (TNF-α; Bos taurus) [µM] | IC50 (IL-6; Bos taurus) [µM]
CC[C@H]1OC(=O)[C@H](C)[C@@H](O[C@H]2C[C@@](C)(OC)[C@](O)(CN3CCCCC3)[C@H](C)O2)[C@H](C)[C@@H](O[C@@H]2O[C@H](C)C[C@H](N(C)S(=O)(=O)Nc3ccc(C(C)(C)C)cc3)[C@H]2O)[C@](C)(O)C[C@@H](C)CN[C@H](C)[C@@H](O)[C@]1(C)O [Example C-22] | 4 | 6 |  | 
CC[C@H]1OC(=O)[C@H](C)[C@@H](O[C@H]2C[C@@](C)(OC)[C@](O)(CNCc3ccccc3)[C@H](C)O2)[C@H](C)[C@@H](O[C@@H]2O[C@H](C)C[C@H](N(C)S(=O)(=O)Nc3ccc(C(F)(F)F)cc3)[C@H]2O)[C@](C)(O)C[C@@H](C)CN[C@H](C)[C@@H](O)[C@]1(C)O [Example B-90] | 8 | 26 |  | 
CCCNC[C@]1(O)[C@H](C)O[C@@H](O[C@H]2[C@H](C)[C@@H](O[C@@H]3O[C@H](C)C[C@H](N(C)S(=O)(=O)c4cnc5ccccn45)[C@H]3Oc3ccc(OC)cc3)[C@](C)(O)C[C@@H](C)CN[C@H](C)[C@@H](O)[C@](C)(O)[C@@H](CC)OC(=O)[C@@H]2C)C[C@@]1(C)OC [Example B-118] | 45 | 10 |  | 
CC[C@H]1OC(=O)[C@H](C)[C@@H](O[C@H]2C[C@@](C)(OC)[C@](O)(CN3CCCCC3)[C@H](C)O2)[C@H](C)[C@@H](O[C@@H]2O[C@H](C)C[C@H](N(C)S(=O)(=O)Nc3ccc(Cl)c(Cl)c3)[C@H]2O)[C@](C)(O)C[C@@H](C)CN[C@H](C)[C@@H](O)[C@]1(C)O [Example C-28] | 25 | 25 |  | 
CCCNC[C@]1(O)[C@H](C)O[C@@H](O[C@H]2[C@H](C)[C@@H](O[C@@H]3O[C@H](C)C[C@H](N(CC(C)C)S(=O)(=O)c4ccc(OC)cc4)[C@H]3O)[C@](C)(O)C[C@@H](C)CN[C@H](C)[C@@H](O)[C@](C)(O)[C@@H](CC)OC(=O)[C@@H]2C)C[C@@]1(C)OC [Example B-149] | 7 | 8 |  | 
CCCNC[C@]1(O)[C@H](C)O[C@@H](O[C@H]2[C@H](C)[C@@H](O[C@@H]3O[C@H](C)C[C@H](N(C)S(=O)(=O)c4ccc(Cl)cc4)[C@H]3O)[C@](C)(O)C[C@@H](C)CN(C)[C@H](C)[C@@H](O)[C@](C)(O)[C@@H](CC)OC(=O)[C@@H]2C)C[C@@]1(C)OC [Example B-153] | 7 | 10 |  | 
CC[C@H]1OC(=O)[C@H](C)[C@@H](O[C@H]2C[C@@](C)(OC)[C@](O)(CNC3CC3)[C@H](C)O2)[C@H](C)[C@@H](O[C@@H]2O[C@H](C)C[C@H](N(C)S(=O)(=O)Nc3ccc(C(F)(F)F)cc3)[C@H]2O)[C@](C)(O)C[C@@H](C)CN[C@H](C)[C@@H](O)[C@]1(C)O [Example B-70] | 4 | 13 |  | 
CC[C@H]1OC(=O)[C@H](C)[C@@H](O[C@H]2C[C@@](C)(OC)[C@](O)(CN3CCCCC3)[C@H](C)O2)[C@H](C)[C@@H](O[C@@H]2O[C@H](C)C[C@H](N(C)S(=O)(=O)c3ccc(C(F)(F)F)cc3)[C@H]2O)[C@](C)(O)C[C@@H](C)CN[C@H](C)[C@@H](O)[C@]1(C)O [Example C-18] | 6 | 5 |  | 
CCCNC[C@]1(O)[C@H](C)O[C@@H](O[C@H]2[C@H](C)[C@@H](O[C@@H]3O[C@H](C)C[C@H](N(CC(C)C)S(=O)(=O)c4ccc(Cl)cc4)[C@H]3O)[C@](C)(O)C[C@@H](C)CN[C@H](C)[C@@H](O)[C@](C)(O)[C@@H](CC)OC(=O)[C@@H]2C)C[C@@]1(C)OC [Example B-150] | 4 | 5 |  | 
CC[C@H]1OC(=O)[C@H](C)[C@@H](O[C@H]2C[C@@](C)(OC)[C@](O)(CN3CCCCC3)[C@H](C)O2)[C@H](C)[C@@H](O[C@@H]2O[C@H](C)C[C@H](N(C)S(=O)(=O)Nc3cccc(Cl)c3)[C@H]2O)[C@](C)(O)C[C@@H](C)CN[C@H](C)[C@@H](O)[C@]1(C)O [Example C-23] | 9 | 10 |  | 
CC[C@H]1OC(=O)[C@H](C)[C@@H](O[C@H]2C[C@@](C)(OC)[C@](O)(CN3CCCCC3)[C@H](C)O2)[C@H](C)[C@@H](O[C@@H]2O[C@H](C)C[C@H](N(CC(C)C)S(=O)(=O)c3ccc(Cl)cc3)[C@H]2O)[C@](C)(O)C[C@@H](C)CN[C@H](C)[C@@H](O)[C@]1(C)O [Example C-42] | 6 | 6 |  | 
CC[C@H]1OC(=O)[C@H](C)[C@@H](O[C@H]2C[C@@](C)(OC)[C@](O)(CNc3ccc(OC)cc3)[C@H](C)O2)[C@H](C)[C@@H](O[C@@H]2O[C@H](C)C[C@H](N(C)S(=O)(=O)c3ccc(Cl)cc3)[C@H]2O)[C@](C)(O)C[C@@H](C)CN[C@H](C)[C@@H](O)[C@]1(C)O [Example B-27] | 17 | 33 |  | 
CCCN([C@H]1C[C@@H](C)O[C@@H](O[C@@H]2[C@@H](C)[C@H](O[C@H]3C[C@@](C)(OC)[C@](O)(CN4CCCCC4)[C@H](C)O3)[C@@H](C)C(=O)O[C@H](CC)[C@@](C)(O)[C@H](O)[C@@H](C)NC[C@H](C)C[C@@]2(C)O)[C@@H]1O)S(=O)(=O)c1ccc(Cl)cc1 [Example C-40] | 5 | 4 |  | 
CC[C@H]1OC(=O)[C@H](C)[C@@H](O[C@H]2C[C@@](C)(OC)[C@](O)(CNCCC(C)C)[C@H](C)O2)[C@H](C)[C@@H](O[C@@H]2O[C@H](C)C[C@H](N(C)S(=O)(=O)c3ccc(Cl)cc3)[C@H]2O)[C@](C)(O)C[C@@H](C)CN[C@H](C)[C@@H](O)[C@]1(C)O [Example B-21] | 5 | 6 |  | 
CC[C@H]1OC(=O)[C@H](C)[C@@H](O[C@H]2C[C@@](C)(OC)[C@](O)(CN3CCCCC3)[C@H](C)O2)[C@H](C)[C@@H](O[C@@H]2O[C@H](C)C[C@H](N(C)S(=O)(=O)Nc3ccc(C)c(C)c3)[C@H]2O)[C@](C)(O)C[C@@H](C)CN[C@H](C)[C@@H](O)[C@]1(C)O [Example C-33] | 7 | 7 |  | 
CCCNC[C@]1(O)[C@H](C)O[C@@H](O[C@H]2[C@H](C)[C@@H](O[C@@H]3O[C@H](C)C[C@H](N(CCC)S(=O)(=O)c4ccc(Cl)cc4)[C@H]3O)[C@](C)(O)C[C@@H](C)CN[C@H](C)[C@@H](O)[C@](C)(O)[C@@H](CC)OC(=O)[C@@H]2C)C[C@@]1(C)OC [Example B-142] |  |  | 8 | 9
CC[C@H]1OC(=O)[C@H](C)[C@@H](O[C@H]2C[C@@](C)(OC)[C@](O)(CN3CCCCC3)[C@H](C)O2)[C@H](C)[C@@H](O[C@@H]2O[C@H](C)C[C@H](N(C)S(=O)(=O)Nc3ccc(C(F)(F)F)cc3)[C@H]2O)[C@](C)(O)C[C@@H](C)CN(CC)[C@H](C)[C@@H](O)[C@]1(C)O [Example C-36] | 6 | 9 |  | 
CCCNC[C@]1(O)[C@H](C)O[C@@H](O[C@H]2[C@H](C)[C@@H](O[C@@H]3O[C@H](C)C[C@H](N(C)S(=O)(=O)c4ccc(C)cc4)[C@H]3O)[C@](C)(O)C[C@@H](C)CN(CCC)[C@H](C)[C@@H](O)[C@](C)(O)[C@@H](CC)OC(=O)[C@@H]2C)C[C@@]1(C)OC [Example B-154] | 7 | 15 |  | 
CC[C@H]1OC(=O)[C@H](C)[C@@H](O[C@H]2C[C@@](C)(OC)[C@](O)(CNCc3ccncc3)[C@H](C)O2)[C@H](C)[C@@H](O[C@@H]2O[C@H](C)C[C@H](N(C)S(=O)(=O)Nc3ccc(C(F)(F)F)cc3)[C@H]2O)[C@](C)(O)C[C@@H](C)CN[C@H](C)[C@@H](O)[C@]1(C)O [Example B-89] | 9 | 23 |  | 

Reference: US20250236616A1, “IMMUNOMODULATING AZALIDES” (Zoetis Services LLC, priority 2021, published 2025)
